Laboratory results as given in patent US11174286B2, “Inhibitors of NF κ-B activity for treatment of diseases and disorders” (priority 2014, dated 2021).
Non-standard residues stand in square brackets, D forms with d. No end group written: not given here.

Key:
smad2 [1] = experiment: Phospho-Smad2 sandwich ELISA in MCF-7 cells (lack functional TBRII); type: cell-based; conditions: for phosphorylation of smad2: MCF-7 cells (do not express TBRII)
Method: (§1) Phosphorylation of smad2 was determined by Enzyme-Linked Immunosorbent Assay (ELISA) using a kit obtained from a commercial source. The Phospho-Smad2 Sandwich ELISA Kit is a solid phase sandwich enzyme-linked immunosorbent assay (ELISA) that recognizes endogenous levels of phospho-Smad2 (Ser465/467) and Smad3 (Ser423/425) proteins. A Smad2/3 Mouse Antibody has been coated on the microwells. After incubation with cell lysates, Smad2/3 proteins (phospho and nonphospho) are captured by the coated antibody. Following extensive washing, a Phospho-Smad2 (Ser465/467)/Smad3 (Ser423/425) Detection Antibody is added to detect captured phospho-Smad2 (Ser465/467) and phospho-Smad3 (Ser423/425) proteins. Anti-rabbit IgG, HRP-linked Antibody is then used to recognize the bound detection antibody. HRP substrate, TMB, is added to develop color. The magnitude of the absorbance for this developed color is proportional to the quantity of phospho-Smad2 (Ser465/467) and phospho-Smad3 (Ser423/425) proteins.

[2] = tested on: chemically induced tumor in hamster cheek; experiment: DMBA-induced oral tumor in hamster buccal pouch, topical peptide gel; type: in vivo, Syrian hamsters
Method: A peptide inhibitor of NF κB activity disclosed herein was tested for treatment of induced oral tumors. Male Syrian hamsters aged 8 to 10 weeks weighing between 100 and 110 g were used. The animals were fed a standard pellet diet and water ad libitum, and were maintained in accordance with applicable ethical and institutional guidelines. The animals were randomized into 10 groups of 8 animals each, and the right buccal pouches of hamsters in groups 1-5 were painted with 0.5% 7,12-dimethylbenz[a]anthracene (DMBA) in liquid paraffin three times a week for 12 weeks.
Mucoadhesive gels containing peptides were prepared by slowly adding Noveon AA1 (0.675% w/w) and Carbopol 971P NF (0.788% w/w) to purified water. The mixture was stirred at 1,025 rpm for one hour to allow full rehydration. Then 0.9% w/w glycerine, 2-phenoxyethanol, benzyl alcohol, and EDTA were added, followed by mixing at 875 rpm for one hour at room temperature. Finally, the desired peptide was added to the gel, and the gel mixed at 875 rpm for one hour to homogenize the gel (Kavitha et al., Biochimie 102:56-67 (2014); Mallery et al., Pharm Res. 24(4):728-737 (2007)).
Hamsters in Group 1 received no further treatment. For hamsters in Groups 2 and 3, peptide gel was applied topically to the right buccal pouches of the hamsters from the 12th to the 18th week daily at concentrations of 10 microgram/ml (2.35 microgram dosage of peptide per application) and 100 microgram/ml (23.5 microgram dosage of peptide per application) respectively. Another group of animals painted with liquid paraffin alone served as control. The experiment was terminated after 18 weeks and all animals were sacrificed by cervical dislocation after an overnight fast.

[3] = tested on: carrageenan-induced hyperalgesia in rat paw; experiment: Carrageenan-induced hyperalgesia in rat paw (modified Randell-Selitto paw withdrawal method); type: in vivo, albino rats; conditions: 3 mg carrageenan, 70 nanogram peptide
Method: To establish the efficacy of the disclosed peptide inhibitors of NF-κB activity in analgesia, hyperalgesia was induced in rat paws with injections of carrageenan. The experiment is as described in Example 5. Injection of carrageenan in a hind paw of rats produced severe hyperalgesia. […] Only the results with peptide SEQ ID NO:042 are shown here.
The ability of the disclosed peptides to affect nociception was determined using a modification of the Randell-Selitto paw withdrawal method. Groups (n=6) of healthy albino rats were injected in the paw with 3 mg carrageenan alone in phosphate buffered saline (PBS). […] As inflammation became obvious (15 min) in carrageenan-treated animals, test animals were injected with 70 nanogram of peptide SEQ ID NO:001, or peptide SEQ ID NO:042 in PBS. The animals are allowed to walk on a metal grid before and after injecting the drugs and the observations were noted. The scoring system was based on normal gait=1, marked limping=0.5, and three legged gait=0. The scores are transformed into percent analgesia and subjected to statistical analysis. The two peptides gave very similar results. The results shown in FIG. 10 are from animals treated with peptide SEQ ID NO:042.

[4] = tested on: carrageenan-induced inflammation in rat paw; experiment: Carrageenan-induced paw edema (plethysmometer); type: in vivo, albino rats
Source text: INFLAMMATORY DISEASES AND FIBROTIC DISEASES: NF-κB is a prototypical proinflammatory signaling pathway, based on the activation of NF-κB by proinflammatory cytokines such as interleukin 1 (IL-1) and tumor necrosis factor a (TNF-α), and the subsequent role of NF-κB in the expression of other proinflammatory genes including cytokines, chemokines, and adhesion molecules. Inhibition of NF-κB can be expected to result in amelioration of inflammation. This was confirmed experimentally using peptide SEQ ID NO:042 in a standard model of carrageenan-induced inflammation in rat paw. This method measures acute inflammation induced by injection of carrageenan (Sakat et al., Inflammation 37(1):1-9 (2014)) and is used extensively to study antiinflammatory properties of drugs. Carrageenan is known to activate NF-κB (Bhattacharyya et al., Mediators of Inflammation, Vol. 2013, Article ID 397642; Bhattacharyya et al., American Journal of Physiology 301(3):G475-G486 (2011); Ellis et al., Ann. Rheum. Dis. 59:303-307 (2000); Pierce et al., J. Biol. Chem. 272:21096-21103 (1997)). Example 6 and FIG. 11 show the high efficacy of peptide SEQ ID NO:042 in alleviating edema and inflammation. […] Treatment of inflammation requires the subsidence of TNF-α and NF-κB pathways, which are part of the action of the disclosed peptides.
Groups (n=6) of healthy albino rats were injected in the paw with 3 mg carrageenan alone in phosphate buffered saline (PBS). […] As inflammation became obvious (15 min) in carrageenan-treated animals, test animals were injected with 70 nanogram of peptide SEQ ID NO:001, or peptide SEQ ID NO:042 in PBS. A plethysmometer was used to measure paw edema at 0, 0.5, 1.0, 2.0, 3.0, 6.0, 12.0, and 24 hours after injections. […] In contrast, animals not receiving peptide continued to show significant inflammation at all time points.

[5] = tested on: oral cancer cell line AW 13516; experiment: Cell cycle analysis by flow cytometry (propidium iodide); type: cell-based
Method: Cell cycle analysis was performed in oral cancer cell line AW 13516 after treatment with TGF-β alone, peptide alone or in combination. Cell cycle analysis was carried out using flow cytometry (Guava Technologies) using reagent kits provided by the instrument maker. The samples were prepared after propidium iodide staining and flow cytometric analysis was performed. TGF-β causes G1 arrest in cells as expected. The disclosed peptides in contrast markedly shortened the G1 phase and prolonged the S-phase, promoting a more faithful synthesis of DNA prior to cell division. Thus, the disclosed peptides have effects which differ from the effects of growth factors.

NF κB = NF κB luciferase reporter assay (dual luciferase) in transfected SiHa cells; type: cell-based; conditions: 24 hours of treatment
Method: SiHa cells (ATCC HTB-35) were seeded in the wells of a 96 well plate at 25,000 cells/well. The cells were transfected with the respective luciferase construct (p-SBE4, p-ARE-Luc in combination with FAST-1, p-NF κB) using Lipofectamine 2000 reagent (Invitrogen Technologies Inc.), as per the manufacturer's instructions. 18 hours post transfection; the cells were subjected to the respective treatments such as TGF-β, TNF-α, and the peptides. After 24 hours of treatment, the plates were removed from the incubator; medium from the cells was discarded. The wells were filled with 50 μl of PLB (passive lysis buffer) provided along with the Promega dual luciferase assay kit. The luciferase assay was performed as per the supplier's instruction manual, after transferring the lysates to a white plate for luminescence measurements. Expression of luciferase, and measurement of the resulting luminescence, thus provides a measurement of the extent of expression of NF-κB.
As per the data in FIG. 2, the disclosed peptides inhibit TNF-α-activation of NF-κB. As per the data in FIG. 3, the disclosed peptide LFAP[D]EA (SEQ ID NO:013) inhibits both TNF-α-induced and constitutive activation of NF-κB. The ratio between the firely/renilla luciferase was used to compare TNF-α induced activation of NF-κB over constitutive NF-κB activity.

smad2 [6] = experiment: Phospho-Smad2 sandwich ELISA in HepG2 cells; type: cell-based; conditions: HepG2 cells (TBRII and TBRI present)
Method: TGF-β signaling requires both receptors.
as §1

p65 subunit of NF κB = experiment: Western blot for p65 (NF κB) phosphorylation in SiHa cells; type: cell-based; conditions: Western blot (FIG. 4)

Compound | % CELLS IN G1 Phase [5] | % CELLS IN Go Phase [5] | % CELLS IN M Phase [5] | % CELLS IN S Phase [5] | inhibition of phosphorylation of the p65 subunit of NF κB (p65 subunit of NF κB) | further results
NC(=O)c1ccc(-c2nc(-c3ccc4c(c3)OCO4)c(-c3ccccn3)[nH]2)cc1 [SB431542, 4-[4-(1,3-benzodioxol-5-yl)-5-(2-pyridinyl)-1H-imidazol-2-yl]benzamide, reference compound] |  |  |  |  |  | effect on peptide-induced smad2 phosphorylation (smad2 [1]; MCF-7 cells, with peptide LIANAK): did not prevent smad2 phosphorylation
ANVAENA [SEQ ID NO:042] | 62.73% | 2.02% | 19.10% | 16.14% |  | histology of DMBA-treated tissue after peptide treatment ([2]; hamster cheek, FIG. 6C): an effect at the microscopic level; tumor growth in hamster cheek ([2]; topical, six weeks, 100 microgram/ml (23.5 microgram per application), after DMBA): marked inhibition of tumor growth; nociception (hyperalgesia) [3]: markedly ameliorated nociception; anti-inflammatory efficacy relative to that reported for celecoxib ([4]; compared with literature value for celecoxib): approximately 103 times; edema and inflammation at 2 h ([4]; rat paw, 3 mg carrageenan, 70 nanogram peptide, 2 h): significant decrease in edema and inflammation; inflammation by 3.0 h ([4]; rat paw, 3 mg carrageenan, 70 nanogram peptide, 3.0 h): subsided almost completely; inflammation up to 24 h post injection ([4]; rat paw, 3 mg carrageenan, 70 nanogram peptide, up to 24 h): no inflammation was noted
LFAP[D]EA (LFAP[dE]A) [SEQ ID NO:013] | 62.05% | 2.87% | 14.86% | 20.21% |  | inhibition of constitutive activation of NF-κB (NF κB; Renilla luciferase): inhibits; inhibition of TNF-α-induced activation of NF-κB (NF κB; firefly luciferase): inhibits
LIANAK [SEQ ID NO:060] |  |  |  |  |  | phosphorylation of smad2 (smad2 [6]): induce phosphorylation; phosphorylation of smad2 (smad2 [1]): causing the phosphorylation of smad2
LIAPEA [SEQ ID NO:061] | 60.05% | 2.33% | 18.59% | 19.03% |  | 
LIAP[D]EA (LIAP[dE]A) [SEQ ID NO:014] | 62.69% | 3.19% | 13.52% | 19.78% |  | 
LWAEAK [SEQ ID NO:008] |  |  |  |  | inhibition of phosphorylation | 
SEQ ID NO:057: peptide of FIG. 8B (SEQ ID NOS:041 through 069), disclosed in U.S. Pat. Nos. 5,661,127, 5,780,436 and 6,638,912; sequence not printed (LIAGEG) | 52.59% | 14.59% | 11.18% | 21.63% |  | 
TGF-β | 79.83% | 8.32% | 8.23% | 3.62% |  | phosphorylation of smad2 (smad2 [6]): induce phosphorylation; phosphorylation of smad2 (smad2 [1]): do not respond
TNWAEN [SEQ ID NO:015] |  |  |  |  | inhibition of phosphorylation | 
TWAPES [SEQ ID NO:016] |  |  |  |  | inhibition of phosphorylation | 
TWSPEL [SEQ ID NO:017] |  |  |  |  | inhibition of phosphorylation | 
YMAPEV [SEQ ID NO:001] |  |  |  |  |  | nociception (hyperalgesia) [3]: markedly ameliorated nociception; paw edema pattern compared with peptide SEQ ID NO:042 ([4]; rat paw, 70 nanogram peptide, 0 to 24 hours): nearly identical patterns
